Experimental findings from US12344615B2, “Substituted pyridines as ion channel modulators” (PRAXIS PRECISION MEDICINES, INC., priority 2019, dated 2025) are described below.

For one experiment, the target named is T1, INaL v1.6 (late sodium current, HEK-293 cells expressing recombinant sodium channels) (Homo sapiens, UniProt Q9UQD0).
T1 construct: expressed in transfected cells; host or cells: HEK-293
T1 sequence (Q9UQD0 whole entry): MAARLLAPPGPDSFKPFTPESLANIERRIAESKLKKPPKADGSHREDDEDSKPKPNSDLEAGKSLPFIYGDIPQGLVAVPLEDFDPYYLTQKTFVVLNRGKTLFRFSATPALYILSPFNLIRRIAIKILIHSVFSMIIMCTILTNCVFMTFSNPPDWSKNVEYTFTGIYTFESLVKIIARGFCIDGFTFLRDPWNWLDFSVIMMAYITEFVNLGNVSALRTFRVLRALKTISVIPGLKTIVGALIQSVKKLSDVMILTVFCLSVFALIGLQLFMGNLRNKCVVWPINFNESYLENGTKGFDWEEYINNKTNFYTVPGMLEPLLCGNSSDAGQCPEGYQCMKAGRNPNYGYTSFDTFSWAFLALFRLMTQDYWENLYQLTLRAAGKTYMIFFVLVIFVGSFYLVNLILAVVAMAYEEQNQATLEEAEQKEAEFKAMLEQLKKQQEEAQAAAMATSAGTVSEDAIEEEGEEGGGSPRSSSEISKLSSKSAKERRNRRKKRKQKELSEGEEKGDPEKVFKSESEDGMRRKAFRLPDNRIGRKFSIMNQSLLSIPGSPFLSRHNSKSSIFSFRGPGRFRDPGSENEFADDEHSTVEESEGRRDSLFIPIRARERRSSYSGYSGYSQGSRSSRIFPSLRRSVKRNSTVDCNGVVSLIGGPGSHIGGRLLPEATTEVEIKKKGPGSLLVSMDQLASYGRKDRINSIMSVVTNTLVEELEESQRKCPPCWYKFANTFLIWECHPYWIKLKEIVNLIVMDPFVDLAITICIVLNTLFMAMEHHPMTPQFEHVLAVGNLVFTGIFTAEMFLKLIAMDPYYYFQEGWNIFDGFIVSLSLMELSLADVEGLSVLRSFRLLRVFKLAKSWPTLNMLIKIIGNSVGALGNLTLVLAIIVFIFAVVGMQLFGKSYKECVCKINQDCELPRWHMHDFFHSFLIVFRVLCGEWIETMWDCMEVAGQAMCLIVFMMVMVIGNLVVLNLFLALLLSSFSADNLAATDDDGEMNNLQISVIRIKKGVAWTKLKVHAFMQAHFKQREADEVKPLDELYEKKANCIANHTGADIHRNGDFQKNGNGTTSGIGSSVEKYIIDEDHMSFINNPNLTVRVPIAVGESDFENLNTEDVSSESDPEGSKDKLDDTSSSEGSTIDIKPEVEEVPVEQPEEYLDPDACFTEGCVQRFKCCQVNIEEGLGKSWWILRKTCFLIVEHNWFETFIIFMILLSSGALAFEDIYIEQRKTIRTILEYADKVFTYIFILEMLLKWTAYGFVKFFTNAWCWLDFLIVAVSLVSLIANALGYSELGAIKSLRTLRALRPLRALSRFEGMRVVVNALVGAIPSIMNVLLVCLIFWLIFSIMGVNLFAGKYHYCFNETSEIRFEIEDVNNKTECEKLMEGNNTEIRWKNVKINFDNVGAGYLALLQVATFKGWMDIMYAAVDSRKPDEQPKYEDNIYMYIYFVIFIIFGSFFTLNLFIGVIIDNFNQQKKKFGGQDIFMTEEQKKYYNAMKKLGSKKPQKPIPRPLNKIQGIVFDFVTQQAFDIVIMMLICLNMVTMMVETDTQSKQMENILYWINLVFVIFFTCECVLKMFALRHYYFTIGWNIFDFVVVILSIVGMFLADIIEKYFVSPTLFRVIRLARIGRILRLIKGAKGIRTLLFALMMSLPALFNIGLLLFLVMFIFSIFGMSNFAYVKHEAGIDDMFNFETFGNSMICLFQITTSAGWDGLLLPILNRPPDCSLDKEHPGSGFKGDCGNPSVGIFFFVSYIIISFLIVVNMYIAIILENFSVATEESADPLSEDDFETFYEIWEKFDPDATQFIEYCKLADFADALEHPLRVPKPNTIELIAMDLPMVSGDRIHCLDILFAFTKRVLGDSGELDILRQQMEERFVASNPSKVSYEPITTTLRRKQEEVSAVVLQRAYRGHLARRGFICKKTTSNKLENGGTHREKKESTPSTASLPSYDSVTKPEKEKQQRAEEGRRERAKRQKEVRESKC
In words: Inhibition of ATX-II evoked Nav late current (INaL), PatchXpress electrophysiology. The class given is cell-based. The conditions noted are these: HEK293, compound at 1 μM, late current evoked by ATX-II 300 nM. The procedure:
Functional characterization of exemplary compounds to modulate voltage gated sodium currents was accomplished using the PatchXpress™ high throughput electrophysiology platforms (Molecular Devices, Sunnyvale, CA). HEK-293 cells expressing recombinant sodium channels were grown in DMEM/high-glucose Dulbecco's modified, 10% FBS, 2 mM sodium pyruvate, and G418. Nav channel expressing cells were grown to 50%-80% confluency and harvested by trypsinization. Trypsinized cells were washed and resuspended in extracellular buffer at a concentration of 1×10^6 cells/ml. The onboard liquid handling facility of the PatchXpress was used for dispensing cells and application of test compounds. Nav late currents were evoked by the application of ATX-II, 300 nM. Currents were evoked by depolarizing pulses to 0 mV for 200 ms from a non-inactivating holding potential (e.g., −120 mV to −150 mV) at a frequency of 0.1 Hz. Late current amplitude and stability were determined by analyzing the mean current amplitude over the 175-195 msec region of the 200 msec test pulse. Following steady state block with exemplary compounds (e.g., as described herein) at 1 μM, a Na^+ free solution containing an impermeant cation (e.g., Choline or NDMG) was added for determination of the 0 current level. Late current amplitudes for each test condition were determined from the mean of the 175-195 msec region of the 200 msec test pulse. Percent inhibition of steady state currents was calculated as (compound−baseline)/(control−baseline)*100, where control represents INaL recorded in the absence of compound.
As usually defined, the inhibition is the drop in the measured response relative to a control, in per cent. `CC(C)(Oc1ncc(-c2ccc3nnc(C4CC4(F)F)n3n2)cc1F)C(F)(F)F` (single isomer, unassigned) [11 (Isomer 1)]: the inhibition at 1 µM was above 75%.

For `CC(C)(Oc1ncc(-c2cn3c(C4CC4(F)F)nnc3cn2)cc1F)C(F)(F)F` (single isomer, unassigned) [13 (Isomer 1)], the inhibition at 1 µM was below 50%. The same measure, in the same setting: for `C[C@@H](Oc1ncc(-c2cn3c(C4CC4(F)F)nnc3cn2)cc1F)C(F)(F)F` (single isomer, unassigned) [16 (Isomer 1)] the value was below 50%.

As for `C[C@H](Oc1ncc(-c2cn3c(C4CC4(F)F)nnc3cn2)cc1F)C(F)(F)F` (single isomer, unassigned) [18 (Isomer 1)], the inhibition at 1 µM was below 50%. On the same count and under the same terms, for `Fc1cc(-c2ccc3nnc(C(F)F)n3n2)cnc1OCC1CC1(F)F` (single isomer, unassigned) [21 (Isomer 1)] the value was 50 to 75%. `Fc1cc(-c2ccc3nnc(C(F)(F)F)n3n2)cnc1OCC1CC1(F)F` (single isomer, unassigned) [23 (Isomer 1)]: the inhibition at 1 µM was in the range of 50 to 75%. Same read-out and setting: as for `Fc1cc(-c2ccc3nnc(C(F)(F)F)n3n2)cnc1OC1CC(F)(F)C1(F)F` (single isomer, unassigned) [25 (Isomer 1)], the figure is above 75%; as for `Fc1cc(-c2cn3c(C(F)(F)F)nnc3cn2)cnc1OCC1CC1(F)F` (single isomer, unassigned) [28 (Isomer 1)], 50 to 75%. Consider `Fc1cc(-c2cn3c(C(F)F)nnc3cn2)cnc1OCC1CC1(F)F` (single isomer, unassigned) [30 (Isomer 1)], for which the inhibition at 1 µM is below 50%.

For `Fc1cc(-c2cn3c(C(F)(F)F)nnc3cn2)cnc1OC1CC(F)(F)C1(F)F` (single isomer, unassigned) [32 (Isomer 1)], the inhibition at 1 µM is above 75%.

Regarding `CC(C)(Oc1ncc(-c2cn3c(C(F)F)nnc3cn2)cc1F)C(F)(F)F` [Compound 1, 3-(difluoromethyl)-6-[5-fluoro-6-(2,2,2-trifluoro-1,1-dimethyl-ethoxy)-3-pyridyl]-[1,2,4]triazolo[4,3-a]pyrazine], the inhibition at 1 µM was above 75%. Consider `Fc1cc(-c2cn3c(C(F)(F)F)nnc3cn2)cnc1OC1(C(F)(F)F)COC1` [Compound 2, 6-[5-fluoro-6-[3-(trifluoromethyl)oxetan-3-yl]oxy-3-pyridyl]-3-(trifluoromethyl)-[1,2,4]triazolo[4,3-a]pyrazine], for which the inhibition at 1 µM was below 50%. On the same count and under the same terms, for `CC(C)(Oc1ncc(-c2cn3c(C(F)(F)F)nnc3cn2)cc1F)C(F)(F)F` [Compound 3, 6-[5-fluoro-6-(2,2,2-trifluoro-1,1-dimethyl-ethoxy)-3-pyridyl]-3-(trifluoromethyl)-[1,2,4]triazolo[4,3-a]pyrazine] the value was above 75%; for `Fc1cc(-c2ccc3nnc(C(F)(F)F)n3n2)cnc1OC1(C(F)(F)F)COC1` [Compound 4, 6-[5-fluoro-6-[3-(trifluoromethyl)oxetan-3-yl]oxy-3-pyridyl]-3-(trifluoromethyl)-[1,2,4]triazolo[4,3-b]pyridazine], 50 to 75%; for `Fc1cc(-c2ccc3nnc(C(F)(F)F)n3n2)cnc1OC1(C(F)(F)F)CCC1` [Compound 6, 6-[5-fluoro-6-[1-(trifluoromethyl)cyclobutoxy]-3-pyridyl]-3-(trifluoromethyl)-[1,2,4]triazolo[4,3-b]pyridazine], above 75%.

As to `Fc1cc(-c2cn3c(C(F)(F)F)nnc3cn2)cnc1OC1(C(F)(F)F)CCC1` [Compound 7, 6-[5-fluoro-6-[1-(trifluoromethyl)cyclobutoxy]-3-pyridyl]-3-(trifluoromethyl)-[1,2,4]triazolo[4,3-a]pyrazine], the inhibition at 1 µM is above 75%. As for `CC(C)(Oc1ncc(-c2cn3c(C4CC(F)(F)C4)nnc3cn2)cc1F)C(F)(F)F` [Compound 8, 3-(3,3-difluorocyclobutyl)-6-[5-fluoro-6-(2,2,2-trifluoro-1,1-dimethyl-ethoxy)-3-pyridyl]-[1,2,4]triazolo[4,3-a]pyrazine], the inhibition at 1 µM was in the range of 50 to 75%. For `Fc1cc(-c2cn3c(C(F)F)nnc3cn2)cnc1OC1(C(F)(F)F)CCC1` [Compound 9, 3-(difluoromethyl)-6-[5-fluoro-6-[1-(trifluoromethyl)cyclobutoxy]-3-pyridyl]-[1,2,4]triazolo[4,3-a]pyrazine], the inhibition at 1 µM is above 75%. The same measure, in the same setting: for `CC(C)(Oc1ncc(-c2cn3c(C4CC4(F)F)nnc3cn2)cc1F)C(F)(F)F` (centres unmarked) [Compound 10, 3-(2,2-difluorocyclopropyl)-6-[5-fluoro-6-(2,2,2-trifluoro-1,1-dimethyl-ethoxy)-3-pyridyl]-[1,2,4]triazolo[4,3-a]pyrazine] the value was 50 to 75%. `CC(C)(Oc1ncc(-c2ccc3nnc(C4CC4(F)F)n3n2)cc1F)C(F)(F)F` (centres unmarked) [Compound 12, 3-(2,2-difluorocyclopropyl)-6-[5-fluoro-6-(2,2,2-trifluoro-1,1-dimethyl-ethoxy)-3-pyridyl]-[1,2,4]triazolo[4,3-b]pyridazine]: the inhibition at 1 µM was above 75%. As to `CC(C)(Oc1ncc(-c2ccc3nnc(C4CC(F)(F)C4)n3n2)cc1F)C(F)(F)F` [Compound 14, 3-(3,3-difluorocyclobutyl)-6-[5-fluoro-6-(2,2,2-trifluoro-1,1-dimethyl-ethoxy)-3-pyridyl]-[1,2,4]triazolo[4,3-b]pyridazine], the inhibition at 1 µM is above 75%. With `C[C@H](Oc1ncc(-c2ccc3nnc(C(F)F)n3n2)cc1F)C(F)(F)F` [Compound 15, 3-(difluoromethyl)-6-[5-fluoro-6-[(1S)-2,2,2-trifluoro-1-methyl-ethoxy]-3-pyridyl]-[1,2,4]triazolo[4,3-b]pyridazine], the inhibition at 1 µM is above 75%.

For `C[C@@H](Oc1ncc(-c2ccc3nnc(C(F)F)n3n2)cc1F)C(F)(F)F` [Compound 17, 3-(difluoromethyl)-6-[5-fluoro-6-[(1R)-2,2,2-trifluoro-1-methyl-ethoxy]-3-pyridyl]-[1,2,4]triazolo[4,3-b]pyridazine], the inhibition at 1 µM was above 75%. The same measure, in the same setting: as for `C[C@H](Oc1ncc(-c2cn3c(C4CC(F)(F)C4)nnc3cn2)cc1F)C(F)(F)F` [Compound 19, 3-(3,3-difluorocyclobutyl)-6-[5-fluoro-6-[(1S)-2,2,2-trifluoro-1-methyl-ethoxy]-3-pyridyl]-[1,2,4]triazolo[4,3-a]pyrazine], the figure is 50 to 75%; as for `C[C@@H](Oc1ncc(-c2cn3c(C4CC(F)(F)C4)nnc3cn2)cc1F)C(F)(F)F` [Compound 20, 3-(3,3-difluorocyclobutyl)-6-[5-fluoro-6-[(1R)-2,2,2-trifluoro-1-methyl-ethoxy]-3-pyridyl]-[1,2,4]triazolo[4,3-a]pyrazine], below 50%; as for `Fc1cc(-c2ccc3nnc(C(F)F)n3n2)cnc1OCC1CC1(F)F` (centres unmarked) [Compound 22, 6-[6-[(2,2-difluorocyclopropyl)methoxy]-5-fluoro-3-pyridyl]-3-(difluoromethyl)-[1,2,4]triazolo[4,3-b]pyridazine], below 50%. On to `Fc1cc(-c2ccc3nnc(C(F)(F)F)n3n2)cnc1OCC1CC1(F)F` (centres unmarked) [Compound 24, 6-[6-[(2,2-difluorocyclopropyl)methoxy]-5-fluoro-3-pyridyl]-3-(trifluoromethyl)-[1,2,4]triazolo[4,3-b]pyridazine], for which the inhibition at 1 µM is 50 to 75%. For `Fc1cc(-c2ccc3nnc(C(F)(F)F)n3n2)cnc1OC1CC(F)(F)C1(F)F` (centres unmarked) [Compound 26, 6-[5-fluoro-6-(2,2,3,3-tetrafluorocyclobutoxy)-3-pyridyl]-3-(trifluoromethyl)-[1,2,4]triazolo[4,3-b]pyridazine], the inhibition at 1 µM is above 75%. For `Fc1cc(-c2cn3c(C(F)(F)F)nnc3cn2)cnc1OCC1CC1(F)F` (centres unmarked) [Compound 29], the inhibition at 1 µM fell in the range of 50 to 75%. For the compound `Fc1cc(-c2cn3c(C(F)F)nnc3cn2)cnc1OCC1CC1(F)F` (centres unmarked) [Compound 31, 6-[6-[(2,2-difluorocyclopropyl)methoxy]-5-fluoro-3-pyridyl]-3-(difluoromethyl)-[1,2,4]triazolo[4,3-a]pyrazine], the inhibition at 1 µM was below 50%.

As to `Fc1cc(-c2cn3c(C(F)(F)F)nnc3cn2)cnc1OC1CC(F)(F)C1(F)F` (centres unmarked) [Compound 33, 6-[5-fluoro-6-(2,2,3,3-tetrafluorocyclobutoxy)-3-pyridyl]-3-(trifluoromethyl)-[1,2,4]triazolo[4,3-a]pyrazine], the inhibition at 1 µM is above 75%.

The same experiment, now with this note: compound at 1 μM, late current evoked by ATX-II 300 nM.
For the compound `CC(C)(Oc1ncc(-c2cn3c(C4CC4(F)F)nnc3cn2)cc1F)C(F)(F)F` (single isomer, unassigned) [13 (Isomer 2)], the “INaL v1.6 % Inhibition” value is on record as “B (inhibition of 50% to 75%)”. Take `C[C@@H](Oc1ncc(-c2cn3c(C4CC4(F)F)nnc3cn2)cc1F)C(F)(F)F` (single isomer, unassigned) [16 (Isomer 2)]: the “INaL v1.6 % Inhibition” value is reported as “B (inhibition of 50% to 75%)”.

Turning to `C[C@H](Oc1ncc(-c2cn3c(C4CC4(F)F)nnc3cn2)cc1F)C(F)(F)F` (single isomer, unassigned) [18 (Isomer 2)], the “INaL v1.6 % Inhibition” value is on record as “B (inhibition of 50% to 75%)”. As for `Fc1cc(-c2ccc3nnc(C(F)F)n3n2)cnc1OCC1CC1(F)F` (single isomer, unassigned) [21 (Isomer 2)], the “INaL v1.6 % Inhibition” value is listed as “A (inhibition of less than 50%)”.
